{"source": "paper PMC7686313", "about": "“Phase 1 study of mTORC1/2 inhibitor sapanisertib (TAK-228) in advanced solid tumours, with an expansion phase in renal, endometrial or bladder cancer” (British Journal of Cancer, 2020)", "test": "Safety (adverse events, NCI CTCAE v4.0), expansion phase", "conditions": "expansion Total (n = 82)", "text": "Based on data collected during dose-escalation, the expansion phase evaluated the safety and efficacy of QD and QW sapanisertib in patients with RCC, endometrial or bladder cancer. Patients could continue receiving sapanisertib for ≤1 year (or beyond, if the investigator and sponsor agreed) in the absence of disease progression or unacceptable toxicity.\nPatients who received ≥1 dose of sapanisertib were included in the safety population. The response-evaluable population included patients who received ≥1 dose of sapanisertib, had measurable disease at baseline, and had ≥1 postbaseline assessment. […] Adverse events (AEs) were assessed using the National Cancer Institute Common Terminology Criteria for Adverse Events, v4.0. Patients were provided with a home blood-glucose meter to monitor their fasting predose blood-glucose measurements to assess hyperglycaemia as an on-target AE and PD marker."}
{"compound": "CC(C)n1nc(-c2ccc3oc(N)nc3c2)c2c(N)ncnc21", "note": "[Sapanisertib]", "values": [{"measurement": "Abdominal pain, all-grade AE of any cause", "result": "17 (21) n (%)"}, {"measurement": "Abdominal pain, grade ≥3 AE of any cause", "result": "3 (4) n (%)"}, {"measurement": "Acute kidney injury, grade ≥3 AE of any cause", "result": "4 (5) n (%)"}, {"measurement": "Acute kidney injury, treatment-related AE", "result": "6 (7) n (%)"}, {"measurement": "Anaemia, all-grade AE of any cause", "result": "19 (23) n (%)"}, {"measurement": "Anaemia, grade ≥3 AE of any cause", "result": "5 (6) n (%)"}, {"measurement": "Anaemia, treatment-related AE", "result": "12 (15) n (%)"}, {"measurement": "Any AE", "result": "82 (100) n (%)"}, {"measurement": "Any AE resulting in dose modification/interruption", "result": "55 (67) n (%)"}, {"measurement": "Any AE resulting in treatment discontinuation", "result": "12 (15) n (%)"}, {"measurement": "Any SAE", "result": "34 (41) n (%)"}, {"measurement": "Any grade ≥3 AE", "result": "58 (71) n (%)"}, {"measurement": "Any treatment-related AE", "result": "82 (100) n (%)"}, {"measurement": "Any treatment-related SAE", "result": "12 (15) n (%)"}, {"measurement": "Any treatment-related grade ≥3 AE", "result": "38 (46) n (%)"}, {"measurement": "Arthralgia, all-grade AE of any cause", "result": "11 (13) n (%)"}, {"measurement": "Asthenia, grade ≥3 AE of any cause", "result": "3 (4) n (%)"}, {"measurement": "Asthenia, treatment-related AE", "result": "12 (15) n (%)"}, {"measurement": "Asthenia, treatment-related grade ≥3 AE", "result": "2 (2) n (%)"}, {"measurement": "Blood creatinine increased, all-grade AE of any cause", "result": "14 (17) n (%)"}, {"measurement": "Blood creatinine increased, treatment-related AE", "result": "8 (10) n (%)"}, {"measurement": "Constipation, all-grade AE of any cause", "result": "28 (34) n (%)"}, {"measurement": "Constipation, grade ≥3 AE of any cause", "result": "2 (2) n (%)"}, {"measurement": "Cough, all-grade AE of any cause", "result": "22 (27) n (%)"}, {"measurement": "Decreased appetite, all-grade AE of any cause", "result": "41 (50) n (%)"}, {"measurement": "Decreased appetite, treatment-related AE", "result": "37 (45) n (%)"}, {"measurement": "Dehydration, all-grade AE of any cause", "result": "17 (21) n (%)"}, {"measurement": "Dehydration, grade ≥3 AE of any cause", "result": "3 (4) n (%)"}, {"measurement": "Dehydration, treatment-related AE", "result": "9 (11) n (%)"}, {"measurement": "Dehydration, treatment-related grade ≥3 AE", "result": "2 (2) n (%)"}, {"measurement": "Depression, all-grade AE of any cause", "result": "8 (10) n (%)"}, {"measurement": "Diarrhoea, all-grade AE of any cause", "result": "41 (50) n (%)"}, {"measurement": "Diarrhoea, grade ≥3 AE of any cause", "result": "3 (4) n (%)"}, {"measurement": "Diarrhoea, treatment-related AE", "result": "35 (43) n (%)"}, {"measurement": "Diarrhoea, treatment-related grade ≥3 AE", "result": "3 (4) n (%)"}, {"measurement": "Dizziness, all-grade AE of any cause", "result": "12 (15) n (%)"}, {"measurement": "Dry mouth, all-grade AE of any cause", "result": "15 (18) n (%)"}, {"measurement": "Dry mouth, treatment-related AE", "result": "10 (12) n (%)"}, {"measurement": "Dysgeusia, all-grade AE of any cause", "result": "17 (21) n (%)"}, {"measurement": "Dysgeusia, treatment-related AE", "result": "16 (20) n (%)"}, {"measurement": "Dyspepsia, treatment-related AE", "result": "6 (7) n (%)"}, {"measurement": "Dyspnoea, grade ≥3 AE of any cause", "result": "2 (2) n (%)"}, {"measurement": "Fatigue, all-grade AE of any cause", "result": "60 (73) n (%)"}, {"measurement": "Fatigue, grade ≥3 AE of any cause", "result": "11 (13) n (%)"}, {"measurement": "Fatigue, treatment-related AE", "result": "56 (68) n (%)"}, {"measurement": "Fatigue, treatment-related grade ≥3 AE", "result": "10 (12) n (%)"}, {"measurement": "Haematuria, grade ≥3 AE of any cause", "result": "2 (2) n (%)"}, {"measurement": "Headache, all-grade AE of any cause", "result": "12 (15) n (%)"}, {"measurement": "Headache, treatment-related AE", "result": "4 (5) n (%)"}, {"measurement": "Hypercholesterolemia, treatment-related AE", "result": "1 (1) n (%)"}, {"measurement": "Hyperglycaemia, all-grade AE of any cause", "result": "50 (61) n (%)"}, {"measurement": "Hyperglycaemia, grade ≥3 AE of any cause", "result": "13 (16) n (%)"}, {"measurement": "Hyperglycaemia, treatment-related AE", "result": "49 (60) n (%)"}, {"measurement": "Hyperglycaemia, treatment-related grade ≥3 AE", "result": "13 (16) n (%)"}, {"measurement": "Hyperkalaemia, grade ≥3 AE of any cause", "result": "2 (2) n (%)"}, {"measurement": "Hypertension, grade ≥3 AE of any cause", "result": "2 (2) n (%)"}, {"measurement": "Hypokalaemia, grade ≥3 AE of any cause", "result": "2 (2) n (%)"}, {"measurement": "Hyponatremia, grade ≥3 AE of any cause", "result": "3 (4) n (%)"}, {"measurement": "Hypophosphatemia, grade ≥3 AE of any cause", "result": "8 (10) n (%)"}, {"measurement": "Hypophosphatemia, treatment-related AE", "result": "9 (11) n (%)"}, {"measurement": "Hypophosphatemia, treatment-related grade ≥3 AE", "result": "6 (7) n (%)"}, {"measurement": "Lymphopenia, grade ≥3 AE of any cause", "result": "2 (2) n (%)"}, {"measurement": "Lymphopenia, treatment-related grade ≥3 AE", "result": "0 (0) n (%)"}, {"measurement": "Musculoskeletal chest pain, grade ≥3 AE of any cause", "result": "2 (2) n (%)"}, {"measurement": "Nausea, all-grade AE of any cause", "result": "54 (66) n (%)"}, {"measurement": "Nausea, grade ≥3 AE of any cause", "result": "5 (6) n (%)"}, {"measurement": "Nausea, treatment-related AE", "result": "51 (62) n (%)"}, {"measurement": "Nausea, treatment-related grade ≥3 AE", "result": "4 (5) n (%)"}, {"measurement": "Oedema peripheral, all-grade AE of any cause", "result": "15 (18) n (%)"}, {"measurement": "On-study deaths", "result": "3 (4) n (%)"}, {"measurement": "Oropharyngeal pain, all-grade AE of any cause", "result": "13 (16) n (%)"}, {"measurement": "Pain in extremity, grade ≥3 AE of any cause", "result": "3 (4) n (%)"}, {"measurement": "Pneumonia, grade ≥3 AE of any cause", "result": "2 (2) n (%)"}, {"measurement": "Pruritus generalised, all-grade AE of any cause", "result": "19 (23) n (%)"}, {"measurement": "Pruritus generalised, treatment-related AE", "result": "15 (18) n (%)"}, {"measurement": "Pruritus generalised, treatment-related grade ≥3 AE", "result": "1 (1) n (%)"}, {"measurement": "Pruritus, all-grade AE of any cause", "result": "15 (18) n (%)"}, {"measurement": "Pruritus, treatment-related AE", "result": "11 (13) n (%)"}, {"measurement": "Pyrexia, all-grade AE of any cause", "result": "14 (17) n (%)"}, {"measurement": "Rash maculo-papular, all-grade AE of any cause", "result": "24 (29) n (%)"}, {"measurement": "Rash maculo-papular, grade ≥3 AE of any cause", "result": "4 (5) n (%)"}, {"measurement": "Rash maculo-papular, treatment-related AE", "result": "17 (21) n (%)"}, {"measurement": "Rash maculo-papular, treatment-related grade ≥3 AE", "result": "3 (4) n (%)"}, {"measurement": "Rash, treatment-related AE", "result": "2 (2) n (%)"}, {"measurement": "Rash, treatment-related grade ≥3 AE", "result": "0 (0) n (%)"}, {"measurement": "Sepsis, grade ≥3 AE of any cause", "result": "2 (2) n (%)"}, {"measurement": "Stomatitis (includes oropharyngeal pain and mucosal inflammation), treatment-related AE", "result": "37 (45) n (%)"}, {"measurement": "Stomatitis, all-grade AE of any cause", "result": "40 (49) n (%)"}, {"measurement": "Stomatitis, grade ≥3 AE of any cause", "result": "4 (5) n (%)"}, {"measurement": "Stomatitis, treatment-related grade ≥3 AE", "result": "4 (5) n (%)"}, {"measurement": "Thrombocytopenia, grade ≥3 AE of any cause", "result": "4 (5) n (%)"}, {"measurement": "Thrombocytopenia, treatment-related grade ≥3 AE", "result": "4 (5) n (%)"}, {"measurement": "Transitional cell carcinoma, grade ≥3 AE of any cause", "result": "2 (2) n (%)"}, {"measurement": "Urinary tract infection, all-grade AE of any cause", "result": "15 (18) n (%)"}, {"measurement": "Vomiting, all-grade AE of any cause", "result": "43 (52) n (%)"}, {"measurement": "Vomiting, grade ≥3 AE of any cause", "result": "3 (4) n (%)"}, {"measurement": "Vomiting, treatment-related AE", "result": "41 (50) n (%)"}, {"measurement": "Weight decreased, all-grade AE of any cause", "result": "15 (18) n (%)"}, {"measurement": "Weight decreased, treatment-related AE", "result": "9 (11) n (%)"}]}
